The values that follow come from article PMC8051587 (ACS chemical biology, 2020).

Test [1] concerns the target T1, full-length A/Udorn/72 M2 WT (Influenza A virus, UniProt P0DOF5). The settings on record: 100 μM, mean ± SEM at 2 min of drug perfusion; ref [3]; cited from earlier work.
The next test relates to A/WSN/33. The settings on record: plaque reduction assay; cited from earlier work.
Test [2] addresses T1, full-length A/Udorn/72 M2 WT.
The target of another test is M2 WT. The settings on record: read-out: apparent Ki; block of M2 WT; cited from earlier work.

Several values for one entry are separate records, joined by “and”; a condition that tells them apart may be missing. Equal values may be shown once. A value given as a limit tells only on which side of the number the result lay.

T1 sequence (P0DOF5 whole entry, the tested form may be a part): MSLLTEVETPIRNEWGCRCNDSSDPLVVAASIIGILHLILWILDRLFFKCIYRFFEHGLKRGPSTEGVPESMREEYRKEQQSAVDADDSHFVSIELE

`c1csc(-c2cc(CNC34CC5CC(CC(C5)C3)C4)on2)c1` [Compound 6]: in test [1], the “Percent Block (%)” value is 11% and 11 ± 1^g %. Further, the EC50 in the test with A/WSN/33 is around 100 nM. For the same compound, in test [2] (calculated from the ratio koff/kon), the Kd is above 100 µM. In test [2] (inferred from extent of block and perfusion-limited block rate), this compound had a koff above 1 s⁻¹.

Turning to `NC12CC3CC(CC(C3)C1)C2` [Amantadine, amantadine], the Ki at M2 WT is 300 nM.
